From ChEMBL document CHEMBL3879889, “Compositions and methods for treating cancer” (2009)
Activity calls are given as the source filed them. The rule behind the calls is not given here.

Tests used:
HeLa = assay: Induction of morphological changes in HPV18 E6 transformed human HeLa cells assessed as cell shrinkage at 80 to 120 uM after 24 hrs; type: functional, cell-based
[1] = Antiproliferative activity in rat 3Y1 cells transfected with pBLAST at 40 uM after 24 to 96 hrs; type: cell-based; settings: 3y1, 40 µM
[2] = Inhibition of HPV E6 protein interaction with shank1 (unknown origin)
[3] = Downregulation of E6 protein expression in HPV18 E6 transformed human HeLa cells at 60 to 120 uM after 24 hrs by Western blot method; type: functional, cell-based
[4] = Inhibition of HPV E6 protein interaction with PSD95 PDZ domain2 (unknown origin)
[5] = Inhibition of HPV E6 protein interaction with MAGI-1 PDZ domain1 (unknown origin)
[6] = Inhibition of HPV E6 protein interaction with Tip1 (unknown origin)
[7] = Upregulation of p53 expression in HPV18 E6 transformed human HeLa cells at 80 to 120 uM after 24 hrs by immunocytochemical analysis relative to control; type: functional, cell-based
[8] = Cytotoxicity against HPV E6 transformed human SiHa cells assessed as cell viability at 60 uM treated 24 hrs post plating by WST-1 assay relative to control; type: functional; settings: read-out: Activity
[9] = Inhibition of HPV E6 protein interaction with PSD95 PDZ domain3 (unknown origin)
3Y1 [10] = assay: Antiproliferative activity in rat 3Y1 cells transfected with pBLAST E6-16 at 40 uM after 24 to 96 hrs; type: functional, cell-based
3Y1 [11] = assay: Antimigratory activity in rat 3Y1 cells transfected with pBLAST E6-16 at 40 uM after 24 hrs; type: functional, cell-based
[12] = Inhibition of HPV E6 protein interaction with PSD95 PDZ domain1 (unknown origin)
[13] = Cytotoxicity against HPV negative human C33A assessed as cell viability at 60 uM treated 24 hrs post plating by WST-1 assay relative to control; set-up: species or system C-33-A; settings: C33A cells (HPV negative), read-out: Activity
[14] = Cytotoxicity against HPV E6 transformed human HeLa cells assessed as cell viability at 60 uM treated 24 hrs post plating by WST-1 assay relative to control; type: functional; settings: read-out: Activity

**Q.** Which Activity (HeLa) does the source give for CCc1cccc2c(C(c3ccccc3OCC(=O)O)c3c[nH]c4c(CC)cccc34)c[nH]c12 here?
**A.** Active

**Q.** And the Activity [1]?
**A.** Non-Toxic

**Q.** And the IC50 [2]?
**A.** > 250 µM

**Q.** And the Activity [3]?
**A.** Active

**Q.** And the IC50 [4]?
**A.** > 250 µM

**Q.** What about the IC50 [5] of the same molecule?
**A.** 86.9 µM

**Q.** And the IC50 [6]?
**A.** > 250 µM

**Q.** What about the Activity [7] of the same molecule?
**A.** Active

**Q.** And the viability at 60 µM [8]?
**A.** 74.3%

**Q.** And the IC50 [9]?
**A.** > 250 µM

**Q.** And the Activity (3Y1 [10])?
**A.** Active

**Q.** What about the Activity (3Y1 [11]) of the same molecule?
**A.** Active

**Q.** And the IC50 [12]?
**A.** > 250 µM

**Q.** And the viability at 24 h, 60 µM [13]?
**A.** 104%

**Q.** What about the viability at 60 µM [14] of the same molecule?
**A.** 70.1%
